# Patent US20230138400A1, “METHODS AND PHARMACEUTICAL COMPOSITIONS FOR REPROGRAMING IMMUNE ENVIRONMENT IN A SUBJECT IN NEED THEREOF” (INSERM (INSTITUT NATIONAL DE LA SANTE ET DE LA RECHERCHE …, priority 2016, published 2023)
# Legend:
# [1] = tested on: Unpolarized Th0 (from naive CD4 T cells of C57BL/6 mice); experiment: Unpolarized Th0 cells cultured with DDA, flow cytometry; assay type: cell-based, mouse
# Method: FIGS. 3A-D. Unpolarized Th0 (prepared from naive CD4 T cells isolated from the spleen of C57BL/6 mice were cultivated in presence of anti-CD3, anti-CD28 and recombinant IL-2 as indicated in the “Materials and methods” section”) and with gradual concentration of DDA added at day 0 of culture (condition #1) or Day 4 of culture (condition #2). At the end, for each condition, the percentage of Th1 (CD4+Tbet+IFNg+) (A,B) and Treg CD4+Foxp3+IL10+ (C,D) was measured by flow cytometry.
# Immune cell culture. Isolated CD4+ or CD8+ T cells were cultures in 96-well flat bottom plates (0.25×10^6 cells per wells) in 0.25 ml of complete RPMI 1640 media (10% FBS, 1% penicillin/Streptomycin, 1% sodium pyruvate, 1% HEPES and 50 μM b-mercaptoethanol) in the presence of 10 μg/ml plate-bound anti-mouse CD3 (2C11) and 2 μg/ml soluble α-CD28 (LEAF) in addition to 50 ng/ml of recombinant IL-2 (e-bioscience). DDA (synthesized by Affichem) diluted in the solvent vehicle was added at increasing concentration (0-1-10-100 and 1000 nM). […] After 5 days of culture, cells were collected and analyzed by flow cytometry. To investigate the impact of DDA on polarization of CD4 or CD8 naive T cells, DDA or the solvent vehicle was added at the beginning of culture at Day 0 or at Day 4 and cells was analyzed at day 5 by flow cytometry.
# [2] = tested on: tumor cells implanted in mice; details: de Medina et al., Nat Commun. 2013; cited from earlier work
# E0771 tumor = experiment: Infiltration of immune cells inside E0771 tumor, flow cytometry; assay type: in vivo, mouse; details: 0.37 μg/kg DDA, day 15 post treatment
# Description: FIGS. 5A-D. Infiltration of immune cells inside E0771 tumor. (A-D) These bar graphs represent the ratio between (A) Th1 (CD4+ Tbet+) and Treg (CD4+ Foxp3+), (B) CTL cells (CD8+ Granzym B+) on No CTL cells (CD8+ Granzym b−), (C) macrophage type M1 (CD14+ CCR7+ IFNg+) and type M2 (CD14+ CD206+ IL10+) (D) dendritic cells (CD11c+) and myeloid derived suppressive cells (MDSC: CD11b+CD11clow, LY6C+ly6Gint) infiltrated inside the tumor. The tumors were removed at day 15 post treatment with DDA at 0.37 μg/kg (b) or with the solvent vehicle (control) (a). To observe the cytotoxic CD8 T cells, the tumor suspension was prealably stimulated 2 h in vitro with a cocktail of PMA (50 ng/ml), ionomycine (500 ng/ml) and golgistop (concentration from manufacture BD Pharmagen), then the cells were stained with specific antibodies.
# Tumor dissociation: Freshly excised tumors were trimmed of skin, fat, and necrotic tissue and minced in cold Hanks' medium. The minced tumor pieces were placed in an enzyme solution consisting of collagenase type D at 1 mg/ml and DNase type 1 at 20 μg/ml in Hanks' medium at 37° C. After 30 min of dissociation, the cell suspension was collected, washed with Hank's medium, and then suspended in PBS 1×, 0.5% BSA, 0.02% azide and […] EDTA (Facs medium).
# Analysis of immune cells by flow cytometry. Immune cells from the tumors were stained with the indicated fluorescent-labelled antibodies: anti mouse α-CD4, α-CD8, α-T-bet, α-Foxp3, α-granzyme B, α-PD-1, α-CD44, α-Ly6C, α-Ly6G, α-CD11b, α-CD11c, α-CD206, α-CD86, α-IL10, α-IL-6, α-IL-4 purchased from eBioscience or Biolegend. Intracellular staining for T-bet, Foxp3, IFNg, Granzyme B, IL-10, IL-4 and IL-6 was performed according the manufacturer's protocol from Biolegend. To observe the cytotoxic CD8 T cells, the tumor suspension was prealably stimulated 2 h in vitro with a cocktail of PMA (50 ng/ml), ionomycine (500 ng/ml) and golgistop (concentration from manufacture BD Pharmingen), then the cells were stained with specific antibodies. To set the gates, flow cytometry dot plots were based on comparison with isotype control. Flow cytometry measurements of single-cells suspension were performed on a Fortessa 20X (BD pharmingen) and data were analyzed using FlowJo software.
# [3] = tested on: naive CD4 T cells from the spleen of WT or LXRαβKO mice; experiment: Polarization of naive CD4 T cells from WT or LXRαβKO mice in presence of DDA; assay type: cell-based, mouse
# Method: FIGS. 9A-B. Sorted naive CD4 T cells were isolated from the spleen of WT or LXRαβKO mice (collaboration with Hervé Guillou, INRA, Toulouse) and activated in the indicated Th1 or Treg polarizing conditions. These cells were cultured in the presence of increasing concentrations of DDA. After 96 hours, the percentage of (A) Th1: CD4+Tbet+IFNg+ and (B) Treg: CD4+Foxp3+IL10+ cells was measured by flow cytometry and expressed relative to the control.
# FIG. 10. Sorted naive CD4 T cells were isolated from the spleen of WT or LXRαβKO mice and activated in Th2 polarizing conditions. These cells were cultured in the presence of increasing concentrations of DDA. After 96 hours, the percentage of Th2: CD4+GATA3+IL4+ cells was measured by flow cytometry and expressed relative to the control.
compound,measurement,setting,value
"CC(C)CCCC(C)[C@H]1CCC2C3C[C@@H](NCCc4cnc[nH]4)[C@@]4(O)C[C@@H](O)CC[C@]4(C)C3CC[C@@]21C (stereo partly drawn) [DDA, 5a-hydroxy-6b-[2-(1H-imidazol-4-yl)ethylamino]cholestan-3b-ol]",Th0 into Th1 differentiation,"[1]; unpolarized Th0, DDA at day 0 or day 4 (FIG. 3)",does not activated
same,differentiation of Th0 into Treg phenotype,"[1]; unpolarized Th0, DDA at day 0 or day 4, more impressive at day 4 (FIG. 3)",inhibits
same,animal survival,[2],improves animal survival
same,growth of tumor cells implanted in mice,[2],control the growth
same,infiltration of CD3+ T lymphocytes and CD11c+ dendritic cells,[2],increased infiltration
same,infiltration into the tumor of inactivated CD8 (No CTL),E0771 tumor,decreases
same,infiltration into the tumor of macrophage type M2,E0771 tumor,decreases
same,infiltration into the tumor of myeloid derived suppressive cells (MDSC),E0771 tumor,decreases
same,infiltration into the tumor of regulatory CD4 Treg cells,E0771 tumor,decreases
same,infiltration of CD4 Th1 cells inside the tumor,E0771 tumor,increases
same,infiltration of activated CD8 (CTL) inside the tumor,E0771 tumor,increases
same,infiltration of dendritic cells (DC: CD11c+) inside the tumor,E0771 tumor,increases
same,infiltration of macrophage type M1 inside the tumor,E0771 tumor,increases
same,DDA effect on Th1 differentiation,[3]; LXRαβKO mice,abrogated
same,DDA effect on Treg differentiation,[3]; LXRαβKO mice,abrogated
same,differentiation of Th0 into Th1,"[3]; WT mice, Th1 polarizing conditions, 96 h (FIG. 9)",increases
same,differentiation of Th0 into Treg,"[3]; WT mice, Treg polarizing conditions, 96 h (FIG. 9)",decreases
same,Th2 differentiation,"[3]; WT or LXRαβKO mice, Th2 polarizing conditions, 96 h (FIG. 10)",no impact
